This is an account of results in patent publication US12606568B2, “SMARCA degraders and uses thereof” (Kymera Therapeutics, Inc., priority 2020, dated 2026).

What all share (type): cell-based
One assay deals with T1, SMARCA4 (Homo sapiens, UniProt P51532).
T1 construct: SMARCA2 and SMARCA4 protein degradation in MV4-11 cells; endogenous in cells; host or cells: MV4-11
The experiment in a line: SMARCA4 Western blot MV4-11 degradation. The settings on record: for DC50 / Dmax: 24 h; for DC50: read-out: SMARCA4 MSD MV411 degradation 24 h: Mean external-Abs DC50; for Dmax: MV4-11, MV4-11 cells, read-out: SMARCA4 MSD MV411 degradation 24 h: average Dmax %. The procedure: Example 54. SMARCA2 and SMARCA 4 Western Blot MV4-11 Degradation
Cells were seeded into 6-well plates (MV4-11: 4×10^6 cells/well/1 ml) and 1 ml of 2× compound solution was added into the well to make the final concentration and the plates were mixed well and incubated for 24 hours (No cytotoxicity was observed). The cell were collected with media and spun at 3000 rpm for 5 minutes. The supernatant was aspirated and the well and the cells were washed with cold PBS once and combined for centrifugation again; the supernatant aspirated again. 200 ul pre-chilled RIPA lysis buffer (Boston BioProducts BP-115D) with protease/phosphatase inhibitor (Roche 05892791001/Roche 04906837001) was directly added into the tube to lyze the cells for 20 minutes on ice. The cell lysate were collected into EP tubes and spun at 13000 rpm for 20 minutes and 72 ul supernatant was transferred to a fresh EP tube containing 18 ul of 5× loading buffer (Beyotime Bio P0015) to make the loading samples. The samples were heated to 100° C. for 10 minutes and cooled to RT and microcentrifuged. 20 ul of samples were loaded onto SDS-PAGE gel (Novex, WG1402BOX) and the gel was run at 80 V for 20 minutes and 120 V for 1.5 hours. The samples were electrotransfer to a NC membrane using wet-transfer method with 250 mA for 2.5 hours. The membrane was blocked with LICOR blocking buffer (LI-COR, 927-50000) for 1 hour. The membrane was washed three times with TBST (CST #9997S), 5 minutes each. Incubation was performed with primary antibody prepared in blocking buffer with 0.1% Tween-20 (Solarbio, P8220) at 4° C. overnight (Anti-SMARCA2/BRM antibody (ab15597) 1:500; Anti-BRG1 antibody [EPR3912] (ab108318) 1:1000; Rabbit anti-Baf180 antibody [EPR15860] (Abcam, ab196022) 1:1000; mouse anti-beta-Actin (8H10D10) (CST #3700) 1:10000). The membrane was washed three times with TBST, 5 minutes each. Incubation with secondary antibody was performed for 1 hour at RT (anti-rabbit IgG (Licor, 926-32211) 1:5000; anti-mouse IgG (LI-COR, 926-68070) 1:5000). The membrane was washed three times with TBST, 5 minutes each and lastly the LiCOR was read.
The letter codes for SMARCA degradation potency (DC50) include: A (<100 nM), B (100-500 nM), C (501-1000 nM), and D (>1000 nM). The letter codes for the percentage of SMARCA degradation after 24 hours (Dmax %) include: A (>90% degradation), B (>70-90% degradation), C (50-70% degradation), and D (<50% degradation).

Assay [1] has as its target T2, SMARCA2 (Homo sapiens, UniProt P51531). Description: SMARCA2 Western blot MV4-11 degradation. On the set-up: SMARCA2 and SMARCA4 protein degradation in MV4-11 cells; endogenous in cells; host or cells: MV4-11. To be noted: for DC50 / Dmax: 24 h; for DC50: read-out: SMARCA2 MSD MV411 degradation 24 h: Mean external-Abs DC50; for Dmax: MV4-11, MV4-11 cells, read-out: SMARCA2 MSD MV411 degradation 24 h: average Dmax %. (In general: In western blotting, separated proteins are transferred to a membrane and probed.)

Assay [2] deals with T2, SMARCA2. The experiment in a line: MSD SMARCA2 degradation in A549 cell line. On the set-up: endogenous in cells. The settings on record: for DC50 / Dmax: 24 h; for DC50: read-out: SMARCA2 MSD A549 degradation 24 h: Average external-Abs DC50; for Dmax: A549, A549 cells. The procedure: Example 53. MSD SMARCA2 Degradation in A549 Cell Line
Cells were seeded into 96-well plates (A549 cells: 2×10^4 cells/well/100 ul media) abd incubated overnight. The next day, 200 nl compound were added into the intermediate plate with Echo (Labcyte 550) from source plate containing a 3-fold serial dilution from top concentration of 1 mM. The culture medium was changed with 80 ul of fresh medium and 80 ul of 2× compound solution was added into the well to make a final concentration of 1000 nM, 333.3 nM, 111.1 nM, 37.04 nM, 12.35 nM, 4.115 nM, 1.372 nM, 0.457 nM, 0.152 nM and 0 nM (DMSO). The wells were mixed and then incubated for 24 hours. The media was aspirated from the cultures and 60 ul pre-chilled PIPA lysis buffer (Boston BioProducts BP-115D) with protease/phosphatase inhibitor (Roche 05892791001/Roche 04906837001) was added into the well to lyze the cells for 20 minutes at 4° C. The MSD plate (L15XA) was coated with 40 ul cell lysate and incubated at 4° C. overnight. The next day, the plate was washed three times with TBST (CST #9997S), 150 ul/well. The MSD plates was blocked with 150 ul blocking buffer per well and shaked for 1 hr at R^†, 600 rpm. The blocking buffer was 3% Blocker A (MSD, R93BA-4) in TBST. The MSD plate was washed three times with 150 ul/well of TBST and 25 ul/well of detection antibody (Rabbit anti-SMARCA2/BRM antibody, 100 μg/ml, ab223735) was added at final concentration of 1 ug/mi diluted in 1% o Blocking buffer and shaken for 1 hour at R^†, 600 rpm. The MSD plate was washed three times with 150 ul/well of TBST and 25 ul/well of SULFO-TAG anti-rabbit antibody (MSD, R32AB-1) was added at final concentration of 1 μg/ml diluted in […] Blocking buffer and shaken for 1 hour at R^†, 600 rpm. The MSD plate was washed three times with 150 ul/well of TBST and 150 ul/well of 2×MSD reading buffer diluted from 4× (MSD, R92TC-2) with water was added. Lastly, the MSD instrument was read.
The letter codes for SMARCA2 degradation potency (DC50) include: A (<100 nM), B (100-500 nM), C (501-1000 nM), and D (>1000 nM). The letter codes for the percentage of SMARCA2 degradation after 24 hours (Dmax % o) include: A (>90% o degradation), B (>70-90% o degradation), C (50-70% o degradation), and D (<50% degradation).

Some results are limits rather than exact numbers.

T2 sequence (P51531 whole entry): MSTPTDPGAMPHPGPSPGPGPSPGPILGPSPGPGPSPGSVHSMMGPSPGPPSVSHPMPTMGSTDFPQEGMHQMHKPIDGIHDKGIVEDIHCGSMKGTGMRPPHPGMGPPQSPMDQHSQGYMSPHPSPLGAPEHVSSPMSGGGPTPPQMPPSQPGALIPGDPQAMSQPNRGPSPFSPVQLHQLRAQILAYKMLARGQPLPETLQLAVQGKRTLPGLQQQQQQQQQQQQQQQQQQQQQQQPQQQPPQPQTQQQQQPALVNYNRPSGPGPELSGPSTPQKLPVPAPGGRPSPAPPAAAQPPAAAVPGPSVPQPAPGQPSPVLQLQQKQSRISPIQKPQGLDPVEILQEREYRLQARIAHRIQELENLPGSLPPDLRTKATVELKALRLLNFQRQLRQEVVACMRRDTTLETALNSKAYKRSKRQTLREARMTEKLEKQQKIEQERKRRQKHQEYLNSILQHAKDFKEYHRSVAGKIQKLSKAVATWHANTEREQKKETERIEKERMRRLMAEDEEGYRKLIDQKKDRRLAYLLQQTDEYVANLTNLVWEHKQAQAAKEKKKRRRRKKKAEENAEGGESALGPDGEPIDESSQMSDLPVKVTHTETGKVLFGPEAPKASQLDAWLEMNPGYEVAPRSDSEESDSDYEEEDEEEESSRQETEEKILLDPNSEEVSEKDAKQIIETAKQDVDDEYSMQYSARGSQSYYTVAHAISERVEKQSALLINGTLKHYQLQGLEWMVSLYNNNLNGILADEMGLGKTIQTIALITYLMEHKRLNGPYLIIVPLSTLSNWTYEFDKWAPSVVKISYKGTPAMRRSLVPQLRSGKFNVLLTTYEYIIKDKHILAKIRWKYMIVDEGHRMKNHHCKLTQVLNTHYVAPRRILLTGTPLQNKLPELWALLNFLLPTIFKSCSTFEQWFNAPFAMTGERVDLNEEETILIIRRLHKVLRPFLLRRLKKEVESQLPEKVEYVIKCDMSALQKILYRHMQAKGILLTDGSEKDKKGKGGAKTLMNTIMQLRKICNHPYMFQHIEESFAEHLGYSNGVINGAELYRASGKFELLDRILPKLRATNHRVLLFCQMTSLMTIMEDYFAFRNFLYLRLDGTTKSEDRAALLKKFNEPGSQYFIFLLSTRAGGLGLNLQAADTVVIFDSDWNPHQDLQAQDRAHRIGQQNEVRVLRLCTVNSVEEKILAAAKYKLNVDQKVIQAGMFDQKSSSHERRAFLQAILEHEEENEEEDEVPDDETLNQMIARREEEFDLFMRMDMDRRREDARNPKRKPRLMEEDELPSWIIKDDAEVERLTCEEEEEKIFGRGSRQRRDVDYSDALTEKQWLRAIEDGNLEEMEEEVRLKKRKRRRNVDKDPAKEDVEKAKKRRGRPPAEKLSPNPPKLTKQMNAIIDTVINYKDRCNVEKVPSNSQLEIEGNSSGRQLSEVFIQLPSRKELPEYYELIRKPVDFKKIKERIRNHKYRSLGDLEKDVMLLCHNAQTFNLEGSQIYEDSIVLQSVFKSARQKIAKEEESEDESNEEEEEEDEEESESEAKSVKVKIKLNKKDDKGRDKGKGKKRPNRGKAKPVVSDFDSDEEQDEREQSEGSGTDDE
T1 sequence (P51532 whole entry): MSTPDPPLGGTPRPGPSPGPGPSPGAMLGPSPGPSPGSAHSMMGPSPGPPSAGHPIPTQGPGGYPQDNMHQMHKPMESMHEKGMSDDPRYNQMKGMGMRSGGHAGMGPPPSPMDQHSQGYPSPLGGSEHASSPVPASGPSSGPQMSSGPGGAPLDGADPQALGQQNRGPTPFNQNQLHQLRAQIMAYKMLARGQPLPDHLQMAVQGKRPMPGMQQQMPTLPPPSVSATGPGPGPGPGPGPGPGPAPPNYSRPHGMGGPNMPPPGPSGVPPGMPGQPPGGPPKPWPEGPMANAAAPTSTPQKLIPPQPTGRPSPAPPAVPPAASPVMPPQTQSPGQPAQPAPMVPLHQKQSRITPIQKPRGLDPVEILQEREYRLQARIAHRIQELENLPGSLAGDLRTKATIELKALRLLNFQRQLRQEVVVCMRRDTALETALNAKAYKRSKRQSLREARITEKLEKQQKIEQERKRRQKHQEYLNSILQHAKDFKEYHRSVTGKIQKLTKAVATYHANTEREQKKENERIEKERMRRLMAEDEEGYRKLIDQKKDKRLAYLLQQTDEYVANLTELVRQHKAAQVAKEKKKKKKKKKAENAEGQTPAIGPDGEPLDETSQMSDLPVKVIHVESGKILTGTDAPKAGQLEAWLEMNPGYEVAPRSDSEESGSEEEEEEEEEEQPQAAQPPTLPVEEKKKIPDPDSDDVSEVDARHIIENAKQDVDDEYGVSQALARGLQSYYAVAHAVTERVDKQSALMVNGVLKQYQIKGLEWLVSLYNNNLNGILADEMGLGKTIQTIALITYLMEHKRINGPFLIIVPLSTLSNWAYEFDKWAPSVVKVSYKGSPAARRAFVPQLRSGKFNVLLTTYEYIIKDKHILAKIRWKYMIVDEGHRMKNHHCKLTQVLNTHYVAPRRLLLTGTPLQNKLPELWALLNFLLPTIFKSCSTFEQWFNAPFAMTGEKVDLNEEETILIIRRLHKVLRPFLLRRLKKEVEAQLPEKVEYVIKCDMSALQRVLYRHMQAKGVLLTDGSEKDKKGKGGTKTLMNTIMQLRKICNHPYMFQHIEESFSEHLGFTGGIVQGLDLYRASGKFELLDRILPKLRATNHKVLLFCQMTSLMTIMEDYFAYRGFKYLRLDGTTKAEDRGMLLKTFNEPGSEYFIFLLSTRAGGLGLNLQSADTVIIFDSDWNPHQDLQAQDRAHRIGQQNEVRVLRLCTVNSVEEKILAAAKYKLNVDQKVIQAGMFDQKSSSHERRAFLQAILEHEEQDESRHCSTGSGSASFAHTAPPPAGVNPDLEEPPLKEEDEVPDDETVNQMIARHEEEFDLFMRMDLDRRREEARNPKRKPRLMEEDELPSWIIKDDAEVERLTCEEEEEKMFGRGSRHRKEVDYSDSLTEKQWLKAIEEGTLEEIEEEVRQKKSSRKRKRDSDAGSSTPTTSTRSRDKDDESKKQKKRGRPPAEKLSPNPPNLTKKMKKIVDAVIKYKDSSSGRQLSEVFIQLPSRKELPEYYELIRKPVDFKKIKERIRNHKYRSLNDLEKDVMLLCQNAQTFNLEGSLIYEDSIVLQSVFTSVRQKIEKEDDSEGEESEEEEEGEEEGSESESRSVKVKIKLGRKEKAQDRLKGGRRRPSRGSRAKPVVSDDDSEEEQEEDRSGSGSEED

For orientation: DC50 means the midpoint of the concentration-degradation curve. On to `Cc1ncsc1-c1ccc(CNC(=O)[C@@H]2C[C@@H](O)CN2C(=O)[C@@H](NC(=O)[C@H]2CC3(C2)C[C@H](N2CCN(c4cnc(N5C6CCC5CN(c5cc(-c7ccccc7O)nnc5N)C6)nc4)CC2)C3)C(C)(C)C)cc1` (single isomer, unassigned) [I-9], for which, on SMARCA4 (MV4-11 cells), the “SMARCA4 MSD MV411 degradation 24 h: average Dmax %” value is listed as “D (D (<50% degradation))” and the DC50 is above 1000 nM. Further, on SMARCA2 [1] (MV4-11 cells), the “SMARCA2 MSD MV411 degradation 24 h: average Dmax %” value was “B (B (>70-90% degradation))” and the DC50 is below 100 nM. Moreover, at SMARCA2 [2] (A549 cells), the “SMARCA2 MSD A549 degradation 24 h: Average Dmax %” value was “B (B (>70-90% o degradation))” and the DC50 was 100 to 500 nM.
A word on the Dmax: it is the largest share of the target that was removed. `Cc1ncsc1-c1ccc([C@H](C)NC(=O)[C@@H]2C[C@@H](O)CN2C(=O)[C@@H](NC(=O)[C@H]2CCC3(CC2)C[C@H](N2CCC(c4cnc(N5C6CCC5CN(c5cc(-c7ccccc7O)nnc5N)C6)nc4)CC2)C3)C(C)(C)C)cc1` (stereo in doubt) [I-15, (2S,4S)-1-((2S)-2-(2-(4-(2-(3-(3-amino-6-(2-hydroxyphenyl)pyridazin-4-yl)-3,8-diazabicyclo[3.2.1]octan-8-yl)pyrimidin-5-yl)piperidin-1-yl)spiro[3.5]nonane-7-carboxamido)-3,3-dimethylbutanoyl)-4-hydroxy-N—((S)-1-(4-(4-methylthiazol-5-yl)phenyl)ethyl)pyrrolidine-2-carboxamide]: the Dmax on SMARCA4 was 50 to 70%; on SMARCA2 [1], above 90%; on SMARCA2 [2], above 90%. Besides, the DC50 at SMARCA4 (MV4-11 cells) is above 1000 nM; at SMARCA2 [1] (MV4-11 cells), below 100 nM; on SMARCA2 [2] (A549 cells), 100 to 500 nM.
For `Cc1ncsc1-c1ccc(CNC(=O)[C@@H]2C[C@@H](O)CN2C(=O)[C@@H](NC(=O)C2CC3(C2)CN(C2CCC(c4cnc(N5C6CCC5CN(c5cc(-c7ccccc7O)nnc5N)C6)nc4)CC2)C3)C(C)(C)C)cc1` (stereo partly drawn) [I-7, 2-(4-(2-(3-(3-amino-6-(2-hydroxyphenyl)pyridazin-4-yl)-3,8-diazabicyclo[3.2.1]octan-8-yl)pyrimidin-5-yl)cyclohexyl)-N—((S)-1-((2S,4R)-4-hydroxy-2-((4-(4-methylthiazol-5-yl)benzyl)carbamoyl)pyrrolidin-1-yl)-3,3-dimethyl-1-oxobutan-2-yl)-2-azaspiro[3.3]heptane-6-carboxamide], the results for the Dmax on SMARCA4, at SMARCA2 [1] and on SMARCA2 [2] were below 50%, 70 to 90% and 70 to 90%, respectively. Besides, the DC50 on SMARCA4 (MV4-11 cells) was above 1000 nM; on SMARCA2 [1] (MV4-11 cells) it was below 100 nM; on SMARCA2 [2] (A549 cells), 501 to 1000 nM.
On to `Cc1ncsc1-c1ccc(CNC(=O)[C@@H]2C[C@@H](O)CN2C(=O)[C@@H](NC(=O)C2CC3(C2)CN(C2CCN(c4cnc(N5C6CCC5CN(c5cc(-c7ccccc7O)nnc5N)C6)nc4)CC2)C3)C(C)(C)C)cc1` [I-10, 2-(1-(2-(3-(3-amino-6-(2-hydroxyphenyl)pyridazin-4-yl)-3,8-diazabicyclo[3.2.1]octan-8-yl)pyrimidin-5-yl)piperidin-4-yl)-N—((S)-1-((2S,4R)-4-hydroxy-2-((4-(4-methylthiazol-5-yl)benzyl)carbamoyl)pyrrolidin-1-yl)-3,3-dimethyl-1-oxobutan-2-yl)-2-azaspiro[3.3]heptane-6-carboxamide], for which the Dmax on SMARCA4 is below 50%; on SMARCA2 [1], 70 to 90%; on SMARCA2 [2], 70 to 90%. Besides, the DC50 at SMARCA4 (MV4-11 cells) is above 1000 nM; at SMARCA2 [1] (MV4-11 cells) it was below 100 nM; on SMARCA2 [2] (A549 cells), 501 to 1000 nM.
Regarding `Cc1ncsc1-c1ccc(CNC(=O)[C@@H]2C[C@@H](O)CN2C(=O)[C@@H](NC(=O)[C@H]2CC3(C2)C[C@H](N2CC4(CN(c5cnc(N6C7CCC6CN(c6cc(-c8ccccc8O)nnc6N)C7)nc5)C4)C2)C3)C(C)(C)C)cc1` (stereo partly drawn) [I-11, (2S,4R)-1-((2S)-2-(6-(6-(2-(3-(3-amino-6-(2-hydroxyphenyl)pyridazin-4-yl)-3,8-diazabicyclo[3.2.1]octan-8-yl)pyrimidin-5-yl)-2,6-diazaspiro[3.3]heptan-2-yl)spiro[3.3]heptane-2-carboxamido)-3,3-dimethylbutanoyl)-4-hydroxy-N-(4-(4-methylthiazol-5-yl)benzyl)pyrrolidine-2-carboxamide], the Dmax at SMARCA4 is below 50%; at SMARCA2 [1] it was 70 to 90%; at SMARCA2 [2] it was 70 to 90%. Moreover, the DC50 at SMARCA4 (MV4-11 cells) is above 1000 nM; at SMARCA2 [1] (MV4-11 cells), below 100 nM; on SMARCA2 [2] (A549 cells), 100 to 500 nM.
Regarding `Cc1ncsc1-c1ccc(CNC(=O)[C@@H]2C[C@@H](O)CN2C(=O)[C@@H](NC(=O)[C@H]2CC3(C2)C[C@H](N2CC4(CN(c5cnc(N6C7CCC6CN(c6cc(-c8ccccc8O)nnc6N)C7)nc5)C4)C2)C3)C(C)(C)C)cc1` (stereo partly drawn) [I-12, (2S,4R)-1-((2S)-2-(6-(6-(2-(3-(3-amino-6-(2-hydroxyphenyl)pyridazin-4-yl)-3,8-diazabicyclo[3.2.1]octan-8-yl)pyrimidin-5-yl)-2,6-diazaspiro[3.3]heptan-2-yl)spiro[3.3]heptane-2-carboxamido)-3,3-dimethylbutanoyl)-4-hydroxy-N-(4-(4-methylthiazol-5-yl)benzyl)pyrrolidine-2-carboxamide], the DC50 was above 1000 nM on SMARCA4 (MV4-11 cells), below 100 nM on SMARCA2 [1] (MV4-11 cells) and 100 to 500 nM on SMARCA2 [2] (A549 cells).
In the case of `Cc1ncsc1-c1ccc(CNC(=O)[C@@H]2C[C@@H](O)CN2C(=O)[C@@H](NC(=O)[C@H]2CC3(CC[C@H](N4CCC(c5cnc(N6C7CCC6CN(c6cc(-c8ccccc8O)nnc6N)C7)nc5)CC4)CC3)C2)C(C)(C)C)cc1` (stereo partly drawn) [I-13], the Dmax at SMARCA4 is 70 to 90%; on SMARCA2 [1], 70 to 90%; at SMARCA2 [2], above 90%. For the same compound, the values for the DC50 on SMARCA4 (MV4-11 cells), on SMARCA2 [1] (MV4-11 cells) and on SMARCA2 [2] (A549 cells) were above 1000 nM, below 100 nM and below 100 nM, respectively.
